The test system of one experiment is MCF7. The experiment in a line: Cytotoxicity against human MCF7 cells after 48 hrs by MTT assay. The class given is functional, cell-based. The conditions noted are these: MCF7, 48 h. (Tetrazolium assays rely on reduction of a dye to a coloured formazan, in cell work by metabolically active cells.)
Another experiment concerns NIH3T3. The experiment in a line: Cytotoxicity against mouse NIH/3T3 cells after 24 hrs by MTT assay. The class given is ADME, cell-based. The conditions noted are these: NIH3T3, 24 h.
Experiment [1] can be described thus: Cytotoxicity against human SW1116 cells after 48 hrs by MTT assay. Conditions: SW 1116, 48 h. Type of experiment: functional, cell-based.
Experiment [2] can be described thus: Inhibition of telomerase in human SW1116 cells after 24 hrs by TRAP-PCR-ELISA assay. The conditions noted are these: sw 1116. Type of experiment: cell-based.
In a further experiment the test system is HepG2. The experiment in a line: Cytotoxicity against human HepG2 cells after 48 hrs by MTT assay. Type of experiment: functional, cell-based. Conditions: HepG2, 48 h.
Experiment [3] in a line: Cytotoxicity against human BGC823 cells after 48 hrs by MTT assay. The class given is functional, cell-based. The conditions noted are these: BGC-823, 48 h.

Turning to `O=C(CSc1nnc(-c2ccncc2)o1)N/N=C/c1ccco1`, the IC50 in the experiment with MCF7 was found to be 16.6 µM; in the experiment on NIH3T3, 175 µM; in experiment [1], 18.8 µM; in experiment [2] it was 9.63 µM; in the experiment with HepG2, 12.5 µM; in experiment [3], 25.8 µM. The same compound yielded a pIC50 in experiment [2] of 5.02.
Regarding `NNC(=O)CSc1nnc(-c2ccncc2)o1`, the IC50 (in the experiment on MCF7; in experiment [1]; with HepG2; in experiment [3]) was 3.26 µM each time.
As for `O=C(CSc1nnc(-c2ccncc2)o1)N/N=C/c1cccs1`, the IC50 with MCF7 was found to be 23.5 µM; with NIH3T3, 189 µM; in experiment [1], 24.9 µM; in experiment [2], 13.5 µM; in the experiment with HepG2, 14.9 µM; in experiment [3] it was 26.7 µM. For the same compound, the pIC50 in experiment [2] is listed as 4.87.
With `O=C(CSc1nnc(-c2ccncc2)o1)N/N=C/C=C/c1ccccc1`, the IC50 in the experiment with MCF7 was found to be 10.8 µM; in the experiment with NIH3T3 it was 160 µM; in experiment [1], 14.9 µM; in experiment [2], 6.57 µM; with HepG2, 7.42 µM; in experiment [3] it was 10.6 µM. In experiment [2], the pIC50 turned out to be 5.18.
For `O=C(CSc1nnc(-c2ccncc2)o1)N/N=C/c1cccc(F)c1`, the IC50 turned out to be 24.9 µM with MCF7; 205 µM in the experiment on NIH3T3; 26.7 µM in experiment [1]; 15.7 µM in experiment [2]; 19.4 µM with HepG2; 27.5 µM in experiment [3]. Further, the pIC50 in experiment [2] turned out to be 4.8.
Turning to `O=C(CSc1nnc(-c2ccncc2)o1)N/N=C/c1cccc(C(F)(F)F)c1`, the IC50 in the experiment on MCF7 worked out at 14.6 µM; with NIH3T3, 169 µM; in experiment [1] it was 14.9 µM; in experiment [2] it was 5.18 µM; with HepG2, 6.52 µM; in experiment [3], 13 µM. Further, the pIC50 in experiment [2] is reported as 5.29.
As for `COc1cccc(/C=N/NC(=O)CSc2nnc(-c3ccncc3)o2)c1`, the IC50 with MCF7 was found to be 13.8 µM; with NIH3T3 it was 179 µM; in experiment [1], 16.5 µM; in experiment [2] it was 7.54 µM; with HepG2, 9.17 µM; in experiment [3], 15.8 µM. In experiment [2], the pIC50 amounted to 5.12.
Take `O=C(CSc1nnc(-c2ccncc2)o1)N/N=C/c1ccccc1F`: the IC50 with MCF7 was found to be 21.8 µM; in the experiment with NIH3T3, 142 µM; in experiment [1], 21.5 µM; in experiment [2], 14.6 µM; with HepG2, 16 µM; in experiment [3], 24 µM. The pIC50 in experiment [2] is 4.84.
As for `O=C(CSc1nnc(-c2ccncc2)o1)N/N=C/c1ccccc1[N+](=O)[O-]`, the IC50 in the experiment with MCF7 was found to be 35.6 µM; in the experiment with NIH3T3, 214 µM; in experiment [1], 30.7 µM; in experiment [2], 18.2 µM; in the experiment on HepG2, 24.7 µM; in experiment [3] it was 41.6 µM. Besides, in experiment [2], the pIC50 was 4.74.
`O=C(CSc1nnc(-c2ccncc2)o1)N/N=C/c1ccccc1O`: the IC50 with MCF7 amounted to 4.75 µM; in the experiment on NIH3T3 it was 155 µM; in experiment [1], 7.38 µM; in experiment [2], 3.97 µM; with HepG2, 3.51 µM; in experiment [3], 6.16 µM. The pIC50 in experiment [2] came out at 5.4.
With `O=C(CSc1nnc(-c2ccncc2)o1)N/N=C/c1cc(Cl)ccc1O`, the IC50 in the experiment with MCF7 turned out to be 5.83 µM; in the experiment with NIH3T3, 166 µM; in experiment [1], 5.24 µM; in experiment [2], 3.13 µM; in the experiment with HepG2, 3.97 µM; in experiment [3], 5.47 µM. Moreover, the pIC50 in experiment [2] came to 5.5.
Turning to `O=C(CSc1nnc(-c2ccncc2)o1)N/N=C/c1cc(Br)ccc1O`, the IC50 was found to be 7.77 µM with MCF7; 156 µM in the experiment with NIH3T3; 8.15 µM in experiment [1]; 4.28 µM in experiment [2]; 6.49 µM in the experiment on HepG2; 9.59 µM in experiment [3]. Further, in experiment [2], the pIC50 is on record as 5.37.
For `O=C(CSc1nnc(-c2ccncc2)o1)N/N=C/c1cc(Cl)cc(Cl)c1O`, the IC50 in the experiment with MCF7 came to 5.92 µM; with NIH3T3 it was 171 µM; in experiment [1], 5.03 µM; in experiment [2], 4.8 µM; with HepG2, 3.26 µM; in experiment [3], 6.34 µM. The compound also displayed a negative-log IC50 (pIC50) in experiment [2] of 5.32.
For the compound `O=C(CSc1nnc(-c2ccncc2)o1)N/N=C/c1cc(Br)cc(Br)c1O`, the IC50 is 9.01 µM in the experiment on MCF7; 190 µM in the experiment on NIH3T3; 8.57 µM in experiment [1]; 7.12 µM in experiment [2]; 6.54 µM with HepG2; 9.61 µM in experiment [3]. The compound also came in with a pIC50 in experiment [2] of 5.15.
In the case of `O=C(CSc1nnc(-c2ccncc2)o1)N/N=C/c1ccc(O)c(O)c1`, the IC50 with MCF7 was found to be 0.91 µM; with NIH3T3 it was 154 µM; in experiment [1], 1.54 µM; in experiment [2], 1.18 µM; in the experiment with HepG2, 0.76 µM; in experiment [3], 1.26 µM. This compound yielded a pIC50 in experiment [2] of 5.93.
With `COc1cc(/C=N/NC(=O)CSc2nnc(-c3ccncc3)o2)ccc1O`, the IC50 in the experiment on MCF7 stood at 3.78 µM; with NIH3T3 it was 148 µM; in experiment [1], 3.59 µM; in experiment [2], 2.89 µM; in the experiment with HepG2, 2.92 µM; in experiment [3] it was 4.32 µM. This compound gave a pIC50 in experiment [2] of 5.54.
Consider `O=C(CSc1nnc(-c2ccncc2)o1)N/N=C/c1ccc(Cl)cc1Cl`, for which the IC50 worked out at 27.9 µM with MCF7; 221 µM in the experiment with NIH3T3; 28.9 µM in experiment [1]; 17.8 µM in experiment [2]; 18.6 µM in the experiment with HepG2; 35.6 µM in experiment [3]. The pIC50 in experiment [2] turned out to be 4.75.
In the case of `Cc1ccc(/C=N/NC(=O)CSc2nnc(-c3ccncc3)o2)cc1`, the IC50 with MCF7 worked out at 14.7 µM; in the experiment on NIH3T3, 185 µM; in experiment [1] it was 16.8 µM; in experiment [2], 8.51 µM; in the experiment with HepG2, 10 µM; in experiment [3] it was 21.8 µM. Further, the pIC50 in experiment [2] came out at 5.07.
In the case of `O=C(CSc1nnc(-c2ccncc2)o1)N/N=C/c1ccccc1`, the IC50 in the experiment on MCF7 was 14.6 µM; in the experiment with NIH3T3 it was 167 µM; in experiment [1], 16.7 µM; in experiment [2], 9.72 µM; with HepG2, 17.3 µM; in experiment [3], 22.1 µM. The compound also returned a pIC50 in experiment [2] of 5.01.
On to `O=C(CSc1nnc(-c2ccncc2)o1)N/N=C/c1ccc(F)cc1`, for which the IC50 in the experiment on MCF7 worked out at 13.5 µM; in the experiment with NIH3T3, 170 µM; in experiment [1], 15.7 µM; in experiment [2] it was 10.2 µM; in the experiment with HepG2, 12.3 µM; in experiment [3], 17.8 µM. Also, the pIC50 in experiment [2] is 4.99.
For the compound `O=C(CSc1nnc(-c2ccncc2)o1)N/N=C/c1ccc(Cl)cc1`, the IC50 in the experiment with MCF7 worked out at 15.3 µM; in the experiment on NIH3T3, 181 µM; in experiment [1] it was 17 µM; in experiment [2], 11.9 µM; with HepG2, 15.7 µM; in experiment [3] it was 20.5 µM. In experiment [2], this compound came in with a pIC50 of 4.93.
With `O=C(CSc1nnc(-c2ccncc2)o1)N/N=C/c1ccc(Br)cc1`, the IC50 worked out at 19.1 µM in the experiment on MCF7; 169 µM in the experiment on NIH3T3; 21.3 µM in experiment [1]; 12.4 µM in experiment [2]; 18.6 µM in the experiment on HepG2; 24.5 µM in experiment [3]. In addition, in experiment [2], the pIC50 is given as 4.91.
Take `O=C(CSc1nnc(-c2ccncc2)o1)N/N=C/c1ccc([N+](=O)[O-])cc1`: the IC50 is 31.8 µM in the experiment with MCF7; 195 µM in the experiment with NIH3T3; 25.8 µM in experiment [1]; 16.7 µM in experiment [2]; 17.9 µM with HepG2; 31.5 µM in experiment [3]. Besides, the pIC50 in experiment [2] was 4.78.
For the compound `O=C(CSc1nnc(-c2ccncc2)o1)N/N=C/c1ccc(O)cc1`, the IC50 with MCF7 was 11.7 µM; with NIH3T3, 158 µM; in experiment [1], 12.2 µM; in experiment [2] it was 5.36 µM; in the experiment on HepG2, 5.51 µM; in experiment [3], 7.94 µM. This compound showed a pIC50 in experiment [2] of 5.27.
As to `COc1ccc(/C=N/NC(=O)CSc2nnc(-c3ccncc3)o2)cc1`, the IC50 in the experiment with MCF7 was found to be 17.6 µM; in the experiment with NIH3T3, 132 µM; in experiment [1], 20.3 µM; in experiment [2], 9.04 µM; in the experiment with HepG2, 15.8 µM; in experiment [3], 19.8 µM. This compound also gave a negative logarithm of the IC50 (pIC50) in experiment [2] of 5.04.
With `O=c1[nH]cc(F)c(=O)[nH]1` [FLUOROURACIL], the IC50 in the experiment with MCF7 was 9.79 µM; in experiment [1], 5.26 µM; with HepG2 it was 7.43 µM; in experiment [3], 7.48 µM.
Regarding `CC[n+]1c(-c2ccccc2)c2cc(N)ccc2c2ccc(N)cc21` [HOMIDIUM BROMIDE], the IC50 in the experiment with NIH3T3 was found to be 135 µM; in experiment [2], 2.71 µM.

A word on the IC50: it is the concentration that inhibits the measured activity by half. The low end stands for greater potency in that assay, the high end for weaker potency in that assay. By pIC50 is commonly meant the negative decadic logarithm of the IC50, by convention in mol/L. A low value points to a high IC50.

The values above are taken from ChEMBL document CHEMBL3098024, “Synthesis, molecular modeling and biological evaluation of N-benzylidene-2-((5-(pyridin-4-yl)-1,3,4-oxadiazol-2-yl)thio)acetohydrazide derivatives as potential anticancer agents” (Bioorg Med Chem, 2014).
